Data on 2 compounds can be found in PMC6471485, “Selective Inhibitors of a Human Prolyl Hydroxylase (OGFOD1) Involved in Ribosomal Decoding” (Chemistry (Weinheim an Der Bergstrasse, Germany), 2019).

Several values for one entry are separate records, joined by “and”; a condition that tells them apart may be missing. Identical values can stand only once.

One assay deals with T1, OGFOD1 (Homo sapiens, UniProt Q8N543).
T1 sequence (Q8N543 1-542): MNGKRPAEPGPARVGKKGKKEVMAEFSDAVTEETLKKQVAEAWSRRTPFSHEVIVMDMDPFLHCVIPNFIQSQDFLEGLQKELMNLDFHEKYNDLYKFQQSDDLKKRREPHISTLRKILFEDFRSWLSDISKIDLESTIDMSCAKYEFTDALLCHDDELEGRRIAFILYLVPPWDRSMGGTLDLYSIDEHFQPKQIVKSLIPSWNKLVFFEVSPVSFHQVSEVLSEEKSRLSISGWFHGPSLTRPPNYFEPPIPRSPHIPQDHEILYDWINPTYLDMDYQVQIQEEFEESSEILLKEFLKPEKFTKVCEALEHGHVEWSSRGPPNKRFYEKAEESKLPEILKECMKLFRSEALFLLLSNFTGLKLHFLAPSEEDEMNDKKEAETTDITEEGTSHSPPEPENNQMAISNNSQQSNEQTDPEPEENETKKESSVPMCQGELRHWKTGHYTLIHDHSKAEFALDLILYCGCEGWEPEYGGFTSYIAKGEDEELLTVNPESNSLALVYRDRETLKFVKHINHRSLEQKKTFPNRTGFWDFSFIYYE
The assay can be described thus: OGFOD1 inhibition assay: hydroxylation of RPS23 51-70 peptide by MALDI-TOF MS. Conditions: IC50 against OGFOD1, 1 μM OGFOD1; minimum measurable IC50 0.5 μM; values for 24 and 25 regarded as preliminary. It counts as biochemical. The protocol: OGFOD1 inhibition assays were performed by determining the extent of hydroxylation of a 20mer fragment of human ribosomal protein S23 (RPS23) containing residues 51-70 (H2N- […]
-CONH2) by matrix-assisted laser desorption/ionization time-of-flight mass spectrometry (MALDI-TOF MS) using a Waters Micromass MALDI micro MX mass spectrometer and MassLynx 4.1, as previously described.[7,8] The optimized hydroxylation assay involved incubation of OGFOD1 (1 µM) with inhibitor (1 % v/v in DMSO) in the presence of (NH4)2Fe(SO4)2 (50 µM), the disodium salt of 2-oxoglutarate (25 µM), […]
OGFOD1 was pre-incubated with inhibitor for 5 min before initiation of the reaction via the addition of the other reagents. Reactions were quenched with formic acid (1 % v/v) after 15 min. Samples were prepared for MALDI using α-cyano-4-hydrocinnamic acid (CHCA; prepared in 50 % acetonitrile) as a matrix. Dose-responses were assessed in 8-point triplicates, normalized to a no enzyme negative control and a no inhibitor positive control. Non-linear regression analysis was performed using Prism (GraphPad). […]

For another assay, the target named is T2, Ofd1 (Schizosaccharomyces pombe, UniProt Q11120).
T2 sequence (Q11120 1-515): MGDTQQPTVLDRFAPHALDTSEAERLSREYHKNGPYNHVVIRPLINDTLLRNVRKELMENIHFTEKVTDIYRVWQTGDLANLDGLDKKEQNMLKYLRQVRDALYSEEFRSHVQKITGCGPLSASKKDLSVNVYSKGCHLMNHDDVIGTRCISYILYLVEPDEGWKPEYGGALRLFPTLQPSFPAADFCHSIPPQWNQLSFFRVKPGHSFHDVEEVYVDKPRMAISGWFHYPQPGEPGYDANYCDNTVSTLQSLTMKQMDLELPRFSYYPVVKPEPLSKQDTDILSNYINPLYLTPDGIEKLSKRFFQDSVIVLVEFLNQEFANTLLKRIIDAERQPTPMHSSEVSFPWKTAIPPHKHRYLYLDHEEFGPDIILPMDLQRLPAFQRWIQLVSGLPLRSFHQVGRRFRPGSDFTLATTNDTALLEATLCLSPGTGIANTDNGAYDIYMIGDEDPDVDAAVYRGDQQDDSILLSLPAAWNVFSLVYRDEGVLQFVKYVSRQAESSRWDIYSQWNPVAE
The assay can be described thus: Ofd1 inhibition assay (Figure S12). Type of assay: biochemical, yeast. Conditions: Ofd1 1 µM (Figure S12).

For the next assay, the target named is JARID1C (Homo sapiens, UniProt P41229). The assay can be described thus: JARID1C AlphaScreen-based assay. It counts as biochemical. The protocol:
reactions were quenched after 4 min. KDM4A inhibition was tested as described previously using a formaldehyde dehydrogenase (FDH) assay.[9] JARID1B and JARID1C inhibition was tested as described previously using reported AlphaScreen-based assays.[10] MINA531-464 and NO66116-641 were cloned into pFB-LIC-Bse, and the N-terminal His-tagged proteins were produced in Sf9 insect cells. The MINA53 peptide substrate Rpl27a […]
(Gly31 – Pro49 […]) and the NO66 peptide substrate Rpl8
(Asn205 – Thr224 […]) were synthesized by Peptide Protein
Research Ltd (Fareham, Hampshire, UK) to >95% purity. IC50 determinations were performed in 384-well polypropylene plates (Greiner Bio One, Cat Number 781096), and compound dispenses were performed using an ECHO 550 acoustic dispenser (Labcyte, Sunnyvale, CA).
NO66 (diluted to 375 nM in 50 mM MES pH 7.0, 150 mM NaCl) and MINA53 (diluted to 187.5 nM in 50 mM HEPES pH 7.5, 50 mM NaCl) were dispensed (40 µL) into 384-well compound plates using a multidrop combi reagent dispenser (Thermo Scientific, Code 5840300) with a small tube plastic tip dispensing cassette (Thermo Scientific, Code 24073290).
NO66 and MINA53 were pre-incubated with compound for 15 minutes, and the enzyme reaction initiated by dispensing 10 µL of substrate solution [250 µM (NH4)2Fe(SO4)2, 500 µM sodium ascorbate, 25 µM 2OG, 25 µM peptide] in optimized enzyme buffer. […]
On the technique in general: In Alpha technology, singlet oxygen from a donor bead excites a nearby acceptor bead.

The target in the next assay is Tpa1p (Saccharomyces cerevisiae, UniProt P40032). The assay is described as follows: Tpa1p inhibition assay (Figure S12). To be noted: Tpa1p 2 µM (Figure S12). It counts as biochemical.
Tpa1p, sequence (P40032 whole entry): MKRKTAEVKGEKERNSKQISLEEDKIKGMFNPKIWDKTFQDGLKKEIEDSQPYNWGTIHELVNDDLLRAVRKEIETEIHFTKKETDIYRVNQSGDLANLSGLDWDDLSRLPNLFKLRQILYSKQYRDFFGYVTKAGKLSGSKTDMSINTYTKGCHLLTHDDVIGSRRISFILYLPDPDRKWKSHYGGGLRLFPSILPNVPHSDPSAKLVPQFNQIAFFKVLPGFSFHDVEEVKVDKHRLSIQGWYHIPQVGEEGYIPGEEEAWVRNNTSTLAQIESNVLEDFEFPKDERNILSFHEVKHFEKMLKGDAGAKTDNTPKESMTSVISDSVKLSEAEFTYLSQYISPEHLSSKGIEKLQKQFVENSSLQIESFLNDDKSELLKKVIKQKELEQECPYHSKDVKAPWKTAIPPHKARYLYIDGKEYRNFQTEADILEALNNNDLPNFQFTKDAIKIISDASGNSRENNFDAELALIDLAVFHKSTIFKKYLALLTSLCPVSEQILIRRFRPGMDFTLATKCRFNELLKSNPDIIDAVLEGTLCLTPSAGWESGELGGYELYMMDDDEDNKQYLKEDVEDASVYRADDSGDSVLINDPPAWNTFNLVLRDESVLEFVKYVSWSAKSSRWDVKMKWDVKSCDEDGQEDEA

JARID1C, sequence (P41229 whole entry): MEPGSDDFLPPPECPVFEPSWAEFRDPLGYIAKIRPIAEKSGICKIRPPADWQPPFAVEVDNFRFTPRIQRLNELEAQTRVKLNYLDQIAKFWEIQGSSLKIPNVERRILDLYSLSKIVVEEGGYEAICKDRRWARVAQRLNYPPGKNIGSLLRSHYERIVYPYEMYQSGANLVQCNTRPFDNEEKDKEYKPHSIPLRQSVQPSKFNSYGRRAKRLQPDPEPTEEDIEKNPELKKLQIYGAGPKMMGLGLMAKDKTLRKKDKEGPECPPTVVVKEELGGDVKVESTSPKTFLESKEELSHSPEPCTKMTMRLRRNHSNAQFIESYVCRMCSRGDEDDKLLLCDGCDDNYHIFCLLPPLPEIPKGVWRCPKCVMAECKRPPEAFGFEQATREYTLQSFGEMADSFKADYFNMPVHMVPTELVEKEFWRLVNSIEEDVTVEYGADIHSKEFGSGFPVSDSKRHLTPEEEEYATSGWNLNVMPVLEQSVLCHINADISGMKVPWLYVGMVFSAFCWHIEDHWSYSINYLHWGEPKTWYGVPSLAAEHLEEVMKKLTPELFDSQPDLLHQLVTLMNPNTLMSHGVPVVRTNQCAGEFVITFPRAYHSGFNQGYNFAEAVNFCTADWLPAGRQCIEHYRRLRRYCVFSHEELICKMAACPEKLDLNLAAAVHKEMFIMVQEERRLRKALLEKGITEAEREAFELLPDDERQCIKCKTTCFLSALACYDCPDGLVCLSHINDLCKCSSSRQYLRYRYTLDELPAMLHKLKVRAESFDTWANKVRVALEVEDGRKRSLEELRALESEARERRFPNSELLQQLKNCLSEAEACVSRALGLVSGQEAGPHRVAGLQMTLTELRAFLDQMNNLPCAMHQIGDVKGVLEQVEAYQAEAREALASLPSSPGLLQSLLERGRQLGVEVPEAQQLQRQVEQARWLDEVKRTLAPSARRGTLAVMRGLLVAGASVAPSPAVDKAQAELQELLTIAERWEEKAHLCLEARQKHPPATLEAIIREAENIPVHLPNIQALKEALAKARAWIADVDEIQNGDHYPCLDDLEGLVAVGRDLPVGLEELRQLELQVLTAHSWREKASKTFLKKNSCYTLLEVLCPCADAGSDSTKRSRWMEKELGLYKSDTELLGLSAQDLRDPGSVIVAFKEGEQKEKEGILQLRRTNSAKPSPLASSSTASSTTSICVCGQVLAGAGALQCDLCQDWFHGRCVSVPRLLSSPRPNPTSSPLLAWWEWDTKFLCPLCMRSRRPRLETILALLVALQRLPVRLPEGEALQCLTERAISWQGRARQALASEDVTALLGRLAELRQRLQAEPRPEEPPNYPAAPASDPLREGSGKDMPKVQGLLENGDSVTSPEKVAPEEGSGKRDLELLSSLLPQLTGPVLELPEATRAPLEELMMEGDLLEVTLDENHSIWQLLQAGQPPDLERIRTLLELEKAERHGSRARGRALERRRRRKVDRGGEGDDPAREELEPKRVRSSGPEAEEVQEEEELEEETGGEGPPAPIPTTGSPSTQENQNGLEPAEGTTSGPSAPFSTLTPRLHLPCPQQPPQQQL

`Cn1c(O)c(C(=O)CCc2cccs2)c(=O)n(C)c1=O` [compound 42]: the IC50 is 690 nM and < 1000 nM against OGFOD1; above 100000 nM at JARID1C. Also, at Ofd1, the “inhibition of Ofd1, in words” value is reported as “potently inhibit”. Besides, the “inhibition of Tpa1p, in words” value against Tpa1p is on record as “potently inhibit”.

As to `Cn1c(O)c(C(=O)CCc2ccccc2)c(=O)n(C)c1=O` [compound 26], the IC50 on OGFOD1 is 700 nM and 730 nM and < 1000 nM; on JARID1C it was above 100000 nM. Further, the “inhibition of Ofd1, in words” value at Ofd1 is listed as “potently inhibit”. At Tpa1p, the “inhibition of Tpa1p, in words” value is reported as “potently inhibit”.

A word on the IC50: it is the concentration at which inhibition is half-maximal.
